According to ChEMBL document CHEMBL3885861, “Open TG-GATES”:

Species on record: Rattus norvegicus
Assay: Open TG-GATES - Regimen: Daily Repeat
Assay type: toxicity, organism-based, Sprague-Dawley
Set-up: regimen Daily Repeat, gender Male, age 6 weeks
Conditions: in vivo, po, route gavage; for Bas / Eos / Fbg / Lym / MCH / MCHC / MCV / Mono / Neu / PT / Plat / RBC / Ret / WBC: tissue Blood; for KIDNEY_L / KIDNEY_R / KIDNEY_TOTAL: tissue Kidney; for ALP / ALT / AST / BUN / CRE / DBIL / IP / K / LDH / Na / RALB / TBIL / TC / TG / TP / gamma-GTP / GLC: tissue Plasma
[1] = 0 mg/kg, 72 h, dose level Control, time 3 day
[2] = 0 mg/kg, […], dose level Control, time 7 day
[3] = 0 mg/kg, […], dose level Control, time 14 day
[4] = 0 mg/kg, […], dose level Control, time 28 day
[5] = 3 mg/kg, 72 h, dose level Low, time 3 day
[6] = 3 mg/kg, […], dose level Low, time 7 day
[7] = 3 mg/kg, […], dose level Low, time 14 day
[8] = 3 mg/kg, […], dose level Low, time 28 day

Cc1cnc(NC(=O)C2=C(O)c3ccccc3S(=O)(=O)N2C)s1 [MELOXICAM]
TERMINAL_BW [1]: 245.1 g | Bas [1]: 0.8% | Eos [1]: 1.2% | Fbg [1]: 223.6 mg/dL | Lym [1]: 78.4% | MCH [1]: 21.4 pg | MCHC [1]: 34.2% | MCV [1]: 62.4 fL | Mono [1]: 2.8% | Neu [1]: 17% | PT [1]: 11.9 s | Plat [1]: 120 x10_4/uL | RBC [1]: 645.4 x10_4/ul | Ret [1]: 5.5% | KIDNEY_L [1]: 1 g | KIDNEY_R [1]: 1 g | KIDNEY_TOTAL [1]: 2 g | ALP [1]: 947 IU/L | ALT [1]: 42.2 IU/L | AST [1]: 70.4 IU/L | BUN [1]: 18 mg/dL | CRE [1]: 0.4 mg/dL | DBIL [1]: 0.1 mg/dL | IP [1]: 7.7 mg/dL | K [1]: 4.1 meq/L | LDH [1]: 199.2 IU/L | Na [1]: 141 meq/L | RALB [1]: 3.5 g/dL | TBIL [1]: 0.2 mg/dL | TC [1]: 70.8 mg/dL | TG [1]: 111.6 mg/dL | TP [1]: 5.6 g/dL | gamma-GTP [1]: 1 IU/L | TERMINAL_BW [2]: 281.9 g | TERMINAL_BW [3]: 300.3 g | TERMINAL_BW [4]: 396.9 g | Bas [2]: 0.8% | Eos [2]: 1% | Fbg [2]: 216.6 mg/dL | Lym [2]: 78.4% | MCH [2]: 21.4 pg | MCHC [2]: 34.9% | MCV [2]: 61.4 fL | Mono [2]: 2.4% | Neu [2]: 16.6% | PT [2]: 11.9 s | Plat [2]: 139.5 x10_4/uL | RBC [2]: 655.6 x10_4/ul | Ret [2]: 5.1% | Bas [3]: 1% | Eos [3]: 0.8% | Fbg [3]: 226.8 mg/dL | Lym [3]: 78.4% | MCH [3]: 20.1 pg | MCHC [3]: 34% | MCV [3]: 59.1 fL | Mono [3]: 2.8% | Neu [3]: 16.8% | PT [3]: 11.6 s | Plat [3]: 111.1 x10_4/uL | RBC [3]: 734.2 x10_4/ul | Ret [3]: 3.2% | Bas [4]: 1% | Eos [4]: 1% | Fbg [4]: 207.2 mg/dL | Lym [4]: 87% | MCH [4]: 19.3 pg | MCHC [4]: 34.4% | MCV [4]: 56.1 fL | Mono [4]: 1.5% | Neu [4]: 9% | PT [4]: 11.6 s | RBC [4]: 768.2 x10_4/ul | Ret [4]: 2.4% | WBC [4]: 144.5 x10_2/uL | KIDNEY_L [2]: 1.2 g | KIDNEY_R [2]: 1.1 g | KIDNEY_TOTAL [2]: 2.3 g | KIDNEY_L [3]: 1.2 g | KIDNEY_R [3]: 1.2 g | KIDNEY_TOTAL [3]: 2.4 g | KIDNEY_L [4]: 1.4 g | KIDNEY_R [4]: 1.3 g | KIDNEY_TOTAL [4]: 2.7 g | ALP [2]: 892.2 IU/L | ALT [2]: 33.8 IU/L | AST [2]: 68.2 IU/L | BUN [2]: 15.8 mg/dL | CRE [2]: 0.4 mg/dL | DBIL [2]: 0.082 mg/dL | GLC [2]: 214.8 mg/dL | IP [2]: 7.3 mg/dL | K [2]: 3.8 meq/L | LDH [2]: 190.6 IU/L | Na [2]: 142 meq/L | RALB [2]: 3.3 g/dL | TBIL [2]: 0.1 mg/dL | TC [2]: 67.2 mg/dL | TG [2]: 110.2 mg/dL | TP [2]: 5.7 g/dL | gamma-GTP [2]: 1.2 IU/L | ALP [3]: 880.6 IU/L | ALT [3]: 36.6 IU/L | AST [3]: 69.6 IU/L | BUN [3]: 16.4 mg/dL | CRE [3]: 0.4 mg/dL | DBIL [3]: 0.094 mg/dL | IP [3]: 6.9 mg/dL | K [3]: 4 meq/L | LDH [3]: 178.6 IU/L | Na [3]: 142 meq/L | RALB [3]: 3.6 g/dL | TBIL [3]: 0.2 mg/dL | TC [3]: 69 mg/dL | TG [3]: 113.2 mg/dL | TP [3]: 6.1 g/dL | gamma-GTP [3]: 1 IU/L | ALP [4]: 523.8 IU/L | ALT [4]: 32 IU/L | AST [4]: 65.8 IU/L | BUN [4]: 18.2 mg/dL | CRE [4]: 0.5 mg/dL | DBIL [4]: 0.1 mg/dL | GLC [4]: 239.5 mg/dL | IP [4]: 6.9 mg/dL | K [4]: 4.1 meq/L | LDH [4]: 187.8 IU/L | Na [4]: 140.8 meq/L | RALB [4]: 3.5 g/dL | TBIL [4]: 0.2 mg/dL | TC [4]: 69 mg/dL | TG [4]: 141.2 mg/dL | TP [4]: 5.9 g/dL | gamma-GTP [4]: 0.5 IU/L | TERMINAL_BW [5]: 246.9 g | Bas [5]: 0.8% | Eos [5]: 0.8% | Fbg [5]: 225.2 mg/dL | Lym [5]: 83% | MCH [5]: 21.6 pg | MCHC [5]: 34.6% | MCV [5]: 62.5 fL | Mono [5]: 2.2% | Neu [5]: 13% | PT [5]: 11.8 s | Plat [5]: 121.1 x10_4/uL | RBC [5]: 639.2 x10_4/ul | Ret [5]: 5.7% | KIDNEY_L [5]: 1.1 g | KIDNEY_R [5]: 1.1 g | KIDNEY_TOTAL [5]: 2.2 g | ALP [5]: 950.2 IU/L | ALT [5]: 35.6 IU/L | AST [5]: 62.4 IU/L | BUN [5]: 15.2 mg/dL | CRE [5]: 0.4 mg/dL | DBIL [5]: 0.1 mg/dL | IP [5]: 7.6 mg/dL | K [5]: 4.1 meq/L | LDH [5]: 195.6 IU/L | Na [5]: 141 meq/L | RALB [5]: 3.5 g/dL | TBIL [5]: 0.2 mg/dL | TC [5]: 69.8 mg/dL | TG [5]: 140.8 mg/dL | TP [5]: 5.6 g/dL | gamma-GTP [5]: 0.8 IU/L | TERMINAL_BW [6]: 277.7 g | TERMINAL_BW [7]: 332.6 g | TERMINAL_BW [8]: 420.4 g | Bas [6]: 1% | Eos [6]: 1% | Fbg [6]: 226.4 mg/dL | Lym [6]: 81.6% | MCH [6]: 21.9 pg | MCHC [6]: 34.7% | MCV [6]: 63.3 fL | Mono [6]: 2.4% | Neu [6]: 14.6% | PT [6]: 11.9 s | Plat [6]: 124.9 x10_4/uL | RBC [6]: 637.8 x10_4/ul | Ret [6]: 5.5% | WBC [6]: 129.6 x10_2/uL | Bas [7]: 1% | Eos [7]: 1% | Fbg [7]: 222.4 mg/dL | Lym [7]: 80% | MCH [7]: 20.4 pg | MCHC [7]: 33.6% | MCV [7]: 60.7 fL | Mono [7]: 2.6% | Neu [7]: 15.2% | PT [7]: 11.6 s | Plat [7]: 118.9 x10_4/uL | RBC [7]: 689.2 x10_4/ul | Ret [7]: 4.1% | WBC [7]: 124.4 x10_2/uL | Bas [8]: 1% | Eos [8]: 1% | Fbg [8]: 213.8 mg/dL | Lym [8]: 81.2% | MCH [8]: 18.9 pg | MCHC [8]: 34.2% | MCV [8]: 55.2 fL | Mono [8]: 2.2% | Neu [8]: 13.4% | PT [8]: 11.7 s | Plat [8]: 115.1 x10_4/uL | RBC [8]: 790 x10_4/ul | Ret [8]: 2.5% | WBC [8]: 131 x10_2/uL | KIDNEY_L [6]: 1.3 g | KIDNEY_R [6]: 1.2 g | KIDNEY_TOTAL [6]: 2.5 g | KIDNEY_L [7]: 1.4 g | KIDNEY_R [7]: 1.3 g | KIDNEY_TOTAL [7]: 2.7 g | KIDNEY_L [8]: 1.5 g | KIDNEY_R [8]: 1.5 g | KIDNEY_TOTAL [8]: 3 g | ALP [6]: 971.8 IU/L | ALT [6]: 37 IU/L | AST [6]: 68.4 IU/L | BUN [6]: 15.2 mg/dL | CRE [6]: 0.4 mg/dL | DBIL [6]: 0.098 mg/dL | IP [6]: 7.4 mg/dL | K [6]: 4.1 meq/L | LDH [6]: 186.8 IU/L | Na [6]: 141.8 meq/L | RALB [6]: 3.4 g/dL | TBIL [6]: 0.2 mg/dL | TC [6]: 72.6 mg/dL | TG [6]: 128.8 mg/dL | TP [6]: 5.7 g/dL | gamma-GTP [6]: 1.2 IU/L | ALP [7]: 820.8 IU/L | AST [7]: 75.2 IU/L | BUN [7]: 17 mg/dL | CRE [7]: 0.5 mg/dL | DBIL [7]: 0.1 mg/dL | GLC [7]: 214.6 mg/dL | IP [7]: 7.4 mg/dL | K [7]: 4 meq/L | LDH [7]: 223.6 IU/L | Na [7]: 141.4 meq/L | RALB [7]: 3.5 g/dL | TBIL [7]: 0.2 mg/dL | TC [7]: 72.6 mg/dL | TG [7]: 141.8 mg/dL | TP [7]: 5.9 g/dL | gamma-GTP [7]: 1 IU/L
